Test in all cases: NCI-60 cell line screen, 48 h
In experiment [1] the test system is A498 renal.
The subject of experiment [2] is DMS 114 small cell lung.
For experiment [3], the system named is DMS 273 small cell lung.
In experiment [4] the test system is SNB-78 CNS.
Experiment [5] relates to DLD-1 colon.
For experiment [6], the system named is LXFL 529 NSCLC.
The subject of experiment [7] is HOP-18 NSCLC.
In experiment [8] the test system is NCI-H226 lung.
For experiment [9], the system named is M19-MEL melanoma.
In experiment [10] the test system is RXF-631 renal.
Experiment [11] relates to COLO 205 colon.
In experiment [12] the test system is HS 578T breast.
The test system of experiment [13] is BT-549 breast.
The test system of experiment [14] is T-47D breast.

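These data come from cells grown in 96-well plates and exposed to compound for 48 hours at five concentrations. GI50 marks 50% less growth. TGI denotes the concentration required for complete inhibition of growth.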

For `COc1cc(C2CC(c3cccc(Nc4ccncc4)c3)=NN2c2cc(Cl)cc(Cl)c2)cc(OC)c1OC` (stereo not drawn), in experiment [1], the GI50 is 1.27 µM and the TGI worked out at 4.22 µM.

Take `CCOC(=O)c1ncoc1[C@H]1COC(C)(C)O1`: the TGI in experiment [2], in experiment [3], in experiment [4], in experiment [5], in experiment [6] and in experiment [7] was greater than 100 µM throughout. Besides, the TGI in experiment [8], in experiment [9] and in experiment [10] was greater than 100 µM in each case.

As for `O=C(c1ccccc1)c1nn(-c2ccc(Cl)cc2)c2nc3nc(-c4ccccc4)cc(=O)n3nc12`, the GI50 in experiment [11] was 47.2 µM; in [12], 28.9 µM; in [13] it was 26.2 µM; in experiment [1], 58.8 µM; in experiment [8] it was greater than 100 µM; in [14], 65.9 µM. In addition, the TGI in experiment [11] is greater than 100 µM; in experiment [12], greater than 100 µM; in experiment [13] it was 62.8 µM; in experiment [1] it was greater than 100 µM; in experiment [8], greater than 100 µM; in [14], greater than 100 µM.

The values are drawn from PubChem BioAssay (NCI).
